Assay results as given in patent US6566401B2, “N-acetylcysteine compositions and methods for the treatment and prevention of drug toxicity” (The Board of Trustees of the Leland Stanford Junior …, priority 2001, dated 2003).

Experiments:
[1] = NAC treatment of subjects taking AZT: hematologic toxicity; type: in vivo, human; conditions: HIV disease
From the text: Results have shown that acetaminophen usage, which lowers glutathione levels exacerbates AZT toxicity. Richman, et al. (1987) N. Eng. J. Med. 317: 192-97. De Rosa et al. recently have shown that treatment with NAC which increases glutathione levels decreases the toxicity. De Rosa et al., submitted to JAMA for publication.
It appears that NAC provides cysteine needed to redress the excessive sulfur loss that occurs in HIV disease and specifically to replenish intracellular glutathione. […] This decreases the AZT-mediated inhibition of erythroid development, helps to improve the overall metabolism and stability of erythrocytes and their progenitors (for example, by enabling optimal functioning of the glucose-6-phosphate dehydrogenase and other energy-supplying pathways). In addition, it improves the cell's ability to withstand the production of oxidants induced by the introduction of drugs (such as AZT) and the internal production of molecules (such as TNF and HIV-TAT) that trigger intracellular oxidant production.

[2] = cited from earlier work
[3] = effects counter to those reported for NAC; cited from earlier work

Row | SMILES | effect of NAC treatment on AZT's hematologic toxicity [1] | half-cell potential for the NAC thiol/disulfide pair [2] | bioactive dose relative to NAC (fold less than NAC) [3]
1 | CC(=O)N[C@@H](CS)C(=O)O [NAC, N-acetylcysteine] | decreases AZT's hematologic toxicity | about +63 mV | 
2 | CC(=O)N[C@@H](CSSC[C@H](NC(C)=O)C(=O)O)C(=O)O [oxidized form of NAC, di-n-acetylcysteine] |  |  | 10-100 fold
